Measured values reported in patent US8361971B2, “Tablet formulation of ezatiostat” (Telik, Inc., priority 2010, dated 2013).

Assays:
Assay type in all cases: physicochemical
[1] = Description (appearance) of tablets on storage
Procedure: (§1) Tablets of ansolvate form D, were packaged with and without desiccant (Sorb-It Cannister, 1 gram). Fifty tablets were packaged in a round, white 1500 mL bottle with a screw cap over an induction seal. Impurities were assayed by HPLC. When stored at 25° C./60% RH with desiccant for 3 months, no increase in total impurities was observed. When stored at 40° C./75% RH with desiccant for 3 months, total impurities increased only by 0.3%. When stored at 40° C./75% RH without desiccant for 3 months, total impurities still increased by 1.1%. As tabulated below, the presence of desiccant appears to further increase the stability of the ansolvate form D. Even though the dissolution rate of tablets containing polymorph D from one batch was below specification (<70%) at an initial test as well as after 3 months at 25° C./60% RH with desiccant, the subsequent batches met the required specification.

[2] = Assay and impurities by HPLC of tablets on storage; design: key to Individual Impurities RRT = 0.74 / Individual Impurities RRT = 0.83 / TLK 236 RRT = 0.88 / Individual Impurities RRT = 0.94 / Individual Impurities RRT = 0.96 / Total impurities / Individual Impurities RRT = 0.80 / Individual Impurities RRT = 0.81 / Individual Impurities RRT = 0.86 / Individual Impurities RRT = 0.99: impurity content in %
From the text: As used herein, “impurity” refers to one or more of: TLK 236, another polymorphic form of ezatiostat hydrochloride including without limitation form A, B, C, E, or F, and any other compound other than ezatiostat hydrochloride ansolvate, which may be identified by HPLC. TLK 236 is a monoester derived from the partial hydrolysis of ezatiostat where the phenyl glycine moiety remains esterified.
(§2) As described above, form E converts to form B simply during tableting.
as §1

[3] = Tablet dissolution (Q at 45 min); conditions: tablets, hydrochloride
From the text: Without being bound by theory, a higher dissolution rate relates to a higher amount of the active agent in the gastric fluid, which in turn relates to higher bioavailability of the active agent. A high bioavailability is desired, for example and without limitation, for reducing inter patient variability of drug exposure for a orally administered agent such as ezatiostat hydrochloride. […] The aqueous solubility can be measured in a variety of aqueous solvents, including without limitation, water, 0.9% aqueous NaCl, 5% dextrose for injection, phosphate buffered saline, and generally aqueous solutions having a pH of less than about 5. Such solvents may include suitable buffers and other salts. […]
as §1

[4] = Water content of tablets on storage; conditions: hydrochloride
Procedure: Karl Fischer analyses for water determination were performed on a Mettler Toledo DL39 Karl Fischer titrator. About 10-15 mg of sample was placed in the KF titration vessel containing approximately 100 mL of Hydranal®—Coulomat AD reagent and mixed for 60 seconds to ensure dissolution. The dissolved sample was then titrated by means of a generator electrode which produces iodine by electrochemical oxidation. […]
as §1

[5] = X-ray diffraction, polymorphic form in tablets; conditions: hydrochloride; for X-ray Diffraction: tablets
Procedure: X-ray powder diffraction (XRPD) analyses were performed on a Shimadzu XRD-6000 X-ray powder diffractometer using Cu Kα radiation from a long fine focus X-ray tube, operated at 40 kV, 40 mA. The divergence and scattering slits were set at 1° and the receiving slit was set at 0.15 mm. Diffracted radiation was detected by a NaI scintillation detector. A θ-2θ continuous scan at 3°/min (0.4 sec/0.02° step) from 2.5°-40° 2θ was used. A silicon standard was analyzed to check alignment of the instrument. Data were collected and analyzed using XRD-6000 v.4.1 software.
Stress experiments: solids were stressed under different temperature and/or relative humidity (RH) environments for a measured time period. Specific RH values were achieved by placing the sample inside sealed chambers containing saturated salt solutions. Samples were analyzed by XRPD immediately after removal from the stress environment.
as §2, §1

[6] = Assay and impurities by HPLC of tablets on storage; design: key to Individual Impurities RRT = 0.74 / TLK 236 RRT = 0.88 / Individual Impurities RRT = 0.96 / Total impurities: impurity content in %; conditions: 6 Month at 40° C./75% RH without desiccant, hydrochloride
[7] = 3 Month at 40° C./75% RH without desiccant
[8] = 6 Month at 40° C./75% RH without desiccant, hydrochloride
[9] = 3 Month at 40° C./75% RH without desiccant, hydrochloride
[10] = 6 Month at 40° C./75% RH without desiccant

## CCOC(=O)[C@@H](N)CCC(=O)N[C@@H](CSCc1ccccc1)C(=O)N[C@@H](C(=O)OCC)c1ccccc1.Cl [Polymorph Form A, ezatiostat hydrochloride]
[1]; [7]
  Description: Off-white
[1]; [8]
  Description: Off-white
[1]; Initial
  Description: White round
[2]; [9]
  Assay (HPLC): 94.1 % Label Claim
  Individual Impurities RRT = 0.74: 0.16
  Individual Impurities RRT = 0.80: 0.08
  Individual Impurities RRT = 0.81: 0.07
  Individual Impurities RRT = 0.83: 0.10
  Individual Impurities RRT = 0.94: 0.07
  Individual Impurities RRT = 0.96: 0.16
  Individual Impurities RRT = 0.99: 0.07
  TLK 236 RRT = 0.88: 1.99
  Total impurities: 2.7
[2]; [8]
  Individual Impurities RRT = 0.80: 0.14
  Individual Impurities RRT = 0.81: 0.05
[2]; Initial, hydrochloride
  Assay (HPLC): 97.2 % Label Claim
  Individual Impurities RRT = 0.74: 0.13
  Individual Impurities RRT = 0.83: 0.46
  Individual Impurities RRT = 0.96: 0.16
  TLK 236 RRT = 0.88: 0.45
  Total impurities: 1.2
[3]; [7]
  Dissolution, Mean at 45 min: Mean = 74 % of label claim
[3]; [10]
  Dissolution, Mean at 45 min: Mean = 71 % of label claim
[3]; Initial
  Dissolution, Mean at 45 min: Mean = 12 % of label claim
[4]; [7]
  Water Content: 1.7%
[4]; [10]
  Water Content: 1.9%
[4]; Initial
  Water Content: 2.1%
[5]; listed as solvate form A
  polymorphic conversion during tablet manufacture: converting into a mixture of forms A and D during manufacture
[5]; [7]
  X-ray Diffraction: Polymorph A
[5]; [10]
  X-ray Diffraction: Polymorph A
[5]; Initial
  X-ray Diffraction: Polymorph A
[6]
  Assay (HPLC): 91.5 % Label Claim
  Individual Impurities RRT = 0.59/0.62: 0.07
  Individual Impurities RRT = 0.74: 0.15
  Individual Impurities RRT = 0.96: 0.21
  TLK 236 RRT = 0.88: 2.92
  Total impurities: 3.5

## CCOC(=O)[C@@H](N)CCC(=O)N[C@@H](CSCc1ccccc1)C(=O)N[C@@H](C(=O)OCC)c1ccccc1.Cl [Polymorph Form E, ezatiostat hydrochloride]
[1]; [7]
  Description: Off-white
[1]; [8]
  Description: Brown round
[1]; Initial
  Description: White round
[2]; [7]
  Individual Impurities RRT = 0.59/0.62: 0.07
  Individual Impurities RRT = 0.86: 0.06
[2]; [9]
  Assay (HPLC): 90.3 % Label Claim
  Individual Impurities RRT = 0.74: 0.42
  Individual Impurities RRT = 0.80: 0.16
  Individual Impurities RRT = 0.81: 0.14
  Individual Impurities RRT = 0.83: 0.31
  Individual Impurities RRT = 0.94: 0.08
  Individual Impurities RRT = 0.96: 0.19
  Individual Impurities RRT = 0.99: 0.20
  TLK 236 RRT = 0.88: 3.45
  Total impurities: 5.1
[2]; [8]
  Individual Impurities RRT = 0.80: 0.41
  Individual Impurities RRT = 0.81: 0.17
  Individual Impurities RRT = 0.83: 0.16
[2]; Initial
  Individual Impurities RRT = 0.99: 0.12
[2]; Initial, hydrochloride
  Assay (HPLC): 93.7 % Label Claim
  Individual Impurities RRT = 0.74: 0.38
  Individual Impurities RRT = 0.83: 0.34
  Individual Impurities RRT = 0.96: 0.20
  TLK 236 RRT = 0.88: 0.42
  Total impurities: 1.5
[3]; [7]
  Dissolution, Mean at 45 min: Mean = 33 % of label claim
[3]; [10]
  Dissolution, Mean at 45 min: Mean = 19 % of label claim
[3]; Initial
  Dissolution, Mean at 45 min: Mean = 46 % of label claim
[4]; [7]
  Water Content: 2.3%
[4]; [10]
  Water Content: 2.3%
[4]; Initial
  Water Content: 3.5%
[5]; 40° C. and 75% RH without a desiccant, form D 6 months, form E 3 months, listed as solvate form E
  polymorphic conversion on storage: transforms into a mixture of form B and the ansolvate form D within 3 months
[5]; listed as solvate form E
  polymorphic conversion during tablet manufacture: transforms almost entirely to form B crystals merely during tablet manufacture
[5]; [7]
  X-ray Diffraction: Polymorph B
[5]; [10]
  X-ray Diffraction: Polymorph B
[5]; Initial
  X-ray Diffraction: Polymorph B
[6]
  Assay (HPLC): 84.6 % Label Claim
  Individual Impurities RRT = 0.59/0.62: 0.15
  Individual Impurities RRT = 0.74: 0.51
  Individual Impurities RRT = 0.96: 0.24
  TLK 236 RRT = 0.88: 4.66
  Total impurities: 6.3
